Experimental data: US11034648B2, “Cystobactamide derivatives” (priority 2017, dated 2021)
In brackets after ≈: the same amount, converted by molar mass.

Assays:
E. coli gyrase = target: T1, E. coli gyrase (Escherichia coli, UniProt P0AES4+P0AES6); experiment: E. coli gyrase supercoiling (sc) assay; type: biochemical; details: supercoiling assay kit, agarose gel quantification; read-out: Ec gyrase sc IC50
T1 construct: purchased Inspiralis
Method: The target activity on E. coli gyrase was assessed as described in Baumann et al., Angew Chem Int Ed Engl. 2014; 53(52):14605-9 using a commercial supercoiling (sc) assay kit from Inspiralis according to the manufacturer's instructions. The samples were separated on 0.8% (w/v) agarose gels and relaxed and supercoiled plasmid was visualized by ethidium bromide staining. Half-inhibitory concentrations (IC50) were calculated after image analysis and quantification (ImageJ) based on sigmoidal curve fitting (OriginPro).

[1] = system: E. coli WT-3 [gyrA(S83L,D87G)]; experiment: microbe, parasite or virus in culture; type: cell-based
Method in brief: (§1)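 First, overnight cultures were diluted into cation-adjusted Müller-Hinton broth at 10^4-10^6 cfu/mL. Next, they were exposed to serial compound dilutions for approx. 16 h at 30-37° C. Finally, wells were inspected visually and the MIC assigned where growth was absent.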

P. aeruginosa ΔmexAB = experiment: microbe, parasite or virus in culture; type: cell-based; details: small panel, Tables 1a/1b
Method in brief: as §1

E. coli ΔtolC = experiment: microbe, parasite or virus in culture; type: cell-based; details: no visual growth after approx. 16 h
Method in brief: as §1

E. coli WT = experiment: MIC, microbroth dilution susceptibility assay; type: cell-based
Method in brief: as §1

E. coli WT DSM-1116 = experiment: MIC, microbroth dilution susceptibility assay; type: cell-based; details: small panel, Tables 1a/1b, no visual growth after approx. 16 h
Method in brief: as §1

P. aeruginosa WT PA14 = experiment: MIC, microbroth dilution susceptibility assay; type: cell-based; details: Tables 1a/1b
Method in brief: as §1

S. aureus Newman = experiment: MIC, microbroth dilution susceptibility assay; type: cell-based; details: small panel, Tables 1a/1b
Method in brief: as §1

P. aeruginosa ESBL 1 = experiment: MIC, microbroth dilution susceptibility assay (Table 2b); type: cell-based
Method: (§2) Cystobactamid derivatives synthesized were tested against relevant Gram negative and positive bacteria of clinical interest. Experimental procedures used for the biological characterization of the compounds are the same as previously described in WO 2016/082934.
(§3) Bacterial strains used in susceptibility assays (minimum inhibitory concentration, MIC) were either part of our internal strain collection or purchased from the German Collection of Microorganisms and Cell Cultures (Deutsche Sammlung von Mikroorganismen und Zellkulturen, DSMZ) and the American Type Culture Collection (ATCC). The susceptible E. coli strain (WT) and fluoroquinolone-resistant mutants E. coli WT-3 and WT-III were kindly provided by Prof Dr. P. Heisig, Pharmaceutical Biology and Microbiology, University of Hamburg, Germany. The efflux-deficient strain P. aeruginosa ΔmexAB was kindly provided by Prof Dr. S. Häußler, Institute for Molecular Bacteriology, TWINCORE, Hannover, Germany. All compounds were prepared as DMSO stocks and MIC values were determined in standard microbroth dilution assays in 96-well MTPs as described in Baumann et al., Angew Chem Int Ed Engl. 2014; 53(52):14605-9. In brief, overnight cultures of bacteria were diluted in either tryptic soy broth (TSB: 1.7% peptone casein, 0.3% peptone soymeal, 0.25% glucose, 0.5% NaCl, 0.25% K2HPO4; pH 7.3; S. pneumoniae and E. faecalis) or cation-adjusted Müller-Hinton Broth (BBL™, BD; all other bacteria) and adjusted to 10^4-10^6 cfu/mL. Bacteria were grown in the presence of the derivatives in serial dilution for approx. 16 h at 30-37° C. MIC values were determined and were defined as the antibiotic concentration at which no visual growth of bacteria was observed.

S. epidermidis = experiment: as above; type: cell-based; details: larger panel
Method: as §2, §3

C. freundii = experiment: as above; type: cell-based; details: larger panel
Method: as §2, §3

K. pneumoniae = experiment: as above; type: cell-based; details: larger panel
Method: as §2, §3

E. faecalis = experiment: as above; type: cell-based; details: larger panel
Method: as §2, §3

E. cloacae = experiment: as above; type: cell-based; details: larger panel
Method: as §2, §3

E. aerogenes = experiment: as above; type: cell-based; details: larger panel
Method: as §2, §3

A. baumannii = experiment: as above; type: cell-based; details: larger panel
Method: as §2, §3

P. aeruginosa ESBL 2 = experiment: as above; type: cell-based
Method: as §2, §3

S. marcescens = experiment: as above; type: cell-based; details: larger panel
Method: as §2, §3

P. mirabilis = experiment: as above; type: cell-based; details: larger panel
Method: as §2, §3

P. vulgaris = experiment: as above; type: cell-based; details: larger panel
Method: as §2, §3

[2] = system: E. coli WT-III [marRΔ74bp]; type: cell-based; details: fluoroquinolone-resistant mutant; Table 2a
Method: as §2, §3

S. aureus ATCC-29213 = experiment: MIC, microbroth dilution susceptibility assay; type: cell-based; details: large panel, Table 2a
Method in brief: as §1

C. freundii DSM-30039 = experiment: MIC, microbroth dilution susceptibility assay; type: cell-based; details: large panel, Table 2a
Method in brief: as §1

E. aerogenes DSM-30053 = experiment: MIC, microbroth dilution susceptibility assay; type: cell-based; details: large panel, Table 2a
Method in brief: as §1

P. vulgaris DSM-2140 = experiment: MIC, microbroth dilution susceptibility assay; type: cell-based; details: large panel, Table 2a
Method in brief: as §1

S. epidermidis DSM-28765 = experiment: MIC, microbroth dilution susceptibility assay; type: cell-based; details: large panel, Table 2a
Method in brief: as §1

P. mirabilis DSM-2140 = experiment: MIC, microbroth dilution susceptibility assay; type: cell-based; details: large panel, Table 2a
Method in brief: as §1

E. faecalis ATCC-29212 = experiment: MIC, microbroth dilution susceptibility assay; type: cell-based; details: large panel, Table 2a; TSB
Method in brief: as §1

S. marcescens DSM-30121 = experiment: MIC, microbroth dilution susceptibility assay; type: cell-based; details: large panel, Table 2a
Method in brief: as §1

A. baumannii DSM-30008 = experiment: MIC, microbroth dilution susceptibility assay; type: cell-based; details: large panel, Table 2a
Method in brief: as §1

S. pneumoniae DSM-20566 = experiment: MIC, microbroth dilution susceptibility assay; type: cell-based; details: large panel, Table 2a; TSB
Method in brief: as §1

K. pneumoniae DSM-30104 = experiment: MIC, microbroth dilution susceptibility assay; type: cell-based; details: large panel, Table 2a
Method in brief: as §1

P. aeruginosa DSM-24600 = experiment: MIC, microbroth dilution susceptibility assay; type: cell-based; details: large panel, Table 2a
Method in brief: as §1

E. cloacae DSM-30054 = experiment: MIC, microbroth dilution susceptibility assay; type: cell-based; details: large panel, Table 2a
Method in brief: as §1

P. aeruginosa DSM-46316 = experiment: MIC, microbroth dilution susceptibility assay; type: cell-based; details: large panel, Table 2a
Method in brief: as §1

CO[C@@H](C(N)=O)[C@H](NC(=O)c1ccc(NC(=O)c2ccc(C#N)cc2)cc1)C(=O)Nc1ccc(C(=O)Nc2ccc(C(=O)Nc3ccc(C(=O)O)cc3)c(O)c2OC(C)C)cc1 [Compound 109, 4-(4-(4-((2S,3R)-4-amino-2-(4-(4-cyanobenzamido)benzamido)-3-methoxy-4-oxobutanamido)benzamido)-2-hydroxy-3-isopropoxybenzamido)benzoic acid]
IC50 (E. coli gyrase): 400 nM
MIC ([1]; Escherichia coli, read-out: MIC E. coli WT-3 [gyrA(S83L,D87G)]): 0.25 µg/mL (≈ 0.297 µM)
MIC (P. aeruginosa ΔmexAB; Pseudomonas aeruginosa, 16 h, read-out: MIC P. aeruginosa ΔmexAB, efflux-deficient strain): < 0.03 µg/mL
MIC (E. coli ΔtolC; Escherichia coli, 16 h, read-out: MIC E. coli ΔtolC, small panel, Tables 1a/1b): < 0.03 µg/mL
MIC (E. coli WT; Escherichia coli, larger panel, Table 2b): 2 µg/mL (≈ 2.38 µM)
MIC (E. coli WT DSM-1116; Escherichia coli, DSM1116, read-out: MIC E. coli WT DSM-1116): < 0.03 µg/mL
MIC (P. aeruginosa WT PA14; Pseudomonas aeruginosa, PA14, small panel, read-out: MIC P. aeruginosa WT PA14): 0.5 µg/mL (≈ 0.594 µM)
MIC (S. aureus Newman; Staphylococcus aureus, NEWMAN, read-out: MIC S. aureus Newman): < 0.03 µg/mL
MIC (P. aeruginosa ESBL 1; Pseudomonas aeruginosa, ESBL1, larger panel): 2 µg/mL (≈ 2.38 µM)
MIC (S. epidermidis; Staphylococcus epidermidis): < 0.03 µg/mL
MIC (C. freundii; Citrobacter freundii): < 0.03 µg/mL
MIC (K. pneumoniae; Klebsiella pneumoniae): 8 µg/mL (≈ 9.5 µM)
MIC (E. faecalis; Enterococcus faecalis): 0.125 µg/mL (≈ 0.148 µM)
MIC (E. cloacae; Enterobacter cloacae): > 64 µg/mL
MIC (E. aerogenes; Klebsiella aerogenes): 2 µg/mL (≈ 2.38 µM)
MIC (A. baumannii; Acinetobacter baumannii): 1 µg/mL (≈ 1.19 µM)
MIC (P. aeruginosa ESBL 2; Pseudomonas aeruginosa, ESBL2, larger panel): 1 µg/mL (≈ 1.19 µM)
MIC (S. marcescens; Serratia marcescens): > 64 µg/mL
MIC (P. mirabilis; Proteus mirabilis): 4 µg/mL (≈ 4.75 µM)
MIC (P. vulgaris; Proteus vulgaris): 0.125 µg/mL (≈ 0.148 µM)

CO[C@@H](C(N)=O)[C@H](NC(=O)c1ccc(NC(=O)c2ccc([N+](=O)[O-])cc2)cc1)C(=O)Nc1ccc(C(=O)Nc2ccc(C(=O)Nc3ccc(C(=O)O)cc3)c(O)c2OC(C)C)cc1 [Cys861-2, reference compound]
IC50 (E. coli gyrase): 220 nM
MIC E. coli WT-III [marRΔ74bp] [2]: 0.5 µg/mL (≈ 0.58 µM)
MIC E. coli WT-3 [gyrA(S83L, D87G)] ([1]; fluoroquinolone-resistant mutant, Table 2a): 0.5 µg/mL (≈ 0.58 µM)
MIC E. coli WT-3 [gyrA(S83L, D87G)] ([1]; larger panel, Table 2b): 0.5 µg/mL (≈ 0.58 µM)
MIC P. aeruginosa ΔmexAB (P. aeruginosa ΔmexAB; efflux-deficient strain): 0.5 µg/mL (≈ 0.58 µM)
MIC E. coli ΔtolC (E. coli ΔtolC; small panel, Tables 1a/1b): 0.125 µg/mL (≈ 0.145 µM)
MIC S. aureus ATCC-29213 (S. aureus ATCC-29213): 0.25 µg/mL (≈ 0.29 µM)
MIC C. freundii DSM-30039 (C. freundii DSM-30039): 0.06 µg/mL (≈ 0.0696 µM)
MIC E. aerogenes DSM-30053 (E. aerogenes DSM-30053): >64 µg/mL
MIC E. coli WT (E. coli WT; large panel, Table 2a): 0.13 µg/mL (≈ 0.151 µM)
MIC E. coli WT (E. coli WT; larger panel, Table 2b): 0.06 µg/mL (≈ 0.0696 µM)
MIC P. vulgaris DSM-2140 (P. vulgaris DSM-2140): 0.25 µg/mL (≈ 0.29 µM)
MIC S. epidermidis DSM-28765 (S. epidermidis DSM-28765): 0.5 µg/mL (≈ 0.58 µM)
MIC E. coli WT DSM-1116 (E. coli WT DSM-1116): 0.125 µg/mL (≈ 0.145 µM)
MIC P. mirabilis DSM-2140 (P. mirabilis DSM-2140): >64 µg/mL
MIC E. faecalis ATCC-29212 (E. faecalis ATCC-29212): 1 µg/mL (≈ 1.16 µM)
MIC S. marcescens DSM-30121 (S. marcescens DSM-30121): 64 µg/mL (≈ 74.3 µM)
MIC A. baumannii DSM-30008 (A. baumannii DSM-30008): 0.5 µg/mL (≈ 0.58 µM)
MIC S. pneumoniae DSM-20566 (S. pneumoniae DSM-20566): 0.06 µg/mL (≈ 0.0696 µM)
MIC K. pneumoniae DSM-30104 (K. pneumoniae DSM-30104): >64 µg/mL
MIC P. aeruginosa WT PA14 (P. aeruginosa WT PA14; small panel): 2 µg/mL (≈ 2.32 µM)
MIC S. aureus Newman (S. aureus Newman): 0.5 µg/mL (≈ 0.58 µM)
MIC P. aeruginosa DSM-24600 (P. aeruginosa DSM-24600): 1 µg/mL (≈ 1.16 µM)
MIC E. cloacae DSM-30054 (E. cloacae DSM-30054): 64 µg/mL (≈ 74.3 µM)
MIC P. aeruginosa DSM-46316 (P. aeruginosa DSM-46316): 2 µg/mL (≈ 2.32 µM)
MIC P. aeruginosa ESBL 1 (P. aeruginosa ESBL 1; larger panel): 4 µg/mL (≈ 4.64 µM)
MIC S. epidermidis (S. epidermidis): 0.5 µg/mL (≈ 0.58 µM)
MIC C. freundii (C. freundii): 0.125 µg/mL (≈ 0.145 µM)
MIC K. pneumoniae (K. pneumoniae): >64 µg/mL
MIC E. faecalis (E. faecalis): 1 µg/mL (≈ 1.16 µM)
MIC E. cloacae (E. cloacae): >64 µg/mL
MIC E. aerogenes (E. aerogenes): >64 µg/mL
MIC A. baumannii (A. baumannii): 1 µg/mL (≈ 1.16 µM)
MIC P. aeruginosa ESBL 2 (P. aeruginosa ESBL 2; larger panel): 2 µg/mL (≈ 2.32 µM)
MIC S. marcescens (S. marcescens): >64 µg/mL
MIC P. mirabilis (P. mirabilis): 32 µg/mL (≈ 37.1 µM)
MIC P. vulgaris (P. vulgaris): 0.25 µg/mL (≈ 0.29 µM)
